According to patent US20230265151A1, “GIP/GLP1 CO-AGONIST COMPOUNDS” (priority 2020, published 2023):
Where two headings read alike, the source gives them in different places. *1 amine or outer side, *2 acyl side, *3 side chain or, on linkers, in order; H or OH if unused. Where a SMILES comes first, the peptide text is derived from it. Side-chain parts run from the residue outwards. [ ]: non-standard residue; d: D form. The star is where a group is joined. αMePhe(2-F) = C[C@](N)(Cc1ccccc1F)C(=O)O; γGlu = O=C(O)[C@H](CCC(=O)[*:2])N[*:1]; C14 diacid = O=C(O)CCCCCCCCCCCCC(=O)*; αMeY = C[C@](N)(Cc1ccc(O)cc1)C(=O)O; αMeL = CC(C)C[C@](C)(N)C(=O)O; Orn = NCCC[C@H](N)C(=O)O; AEEA = NCCOCCOCC(=O)O; Aib = CC(C)(N)C(=O)O

Experiments:
Format in all cases: cell-based
hGIPR = molecular target: T1, hGIPR (Homo sapiens, UniProt P48546); assay: Functional cAMP formation (HTRF) in HEK-293 clonal cells expressing hGIPR, 0.1% bovine casein, without or with 1.0% human serum albumin; conditions: for Emax: percent of maximal response to GIP(1-42)NH2; for EC50: cAMP
T1 construct: expressed in transfected cells
T1 sequence (P48546 22-466): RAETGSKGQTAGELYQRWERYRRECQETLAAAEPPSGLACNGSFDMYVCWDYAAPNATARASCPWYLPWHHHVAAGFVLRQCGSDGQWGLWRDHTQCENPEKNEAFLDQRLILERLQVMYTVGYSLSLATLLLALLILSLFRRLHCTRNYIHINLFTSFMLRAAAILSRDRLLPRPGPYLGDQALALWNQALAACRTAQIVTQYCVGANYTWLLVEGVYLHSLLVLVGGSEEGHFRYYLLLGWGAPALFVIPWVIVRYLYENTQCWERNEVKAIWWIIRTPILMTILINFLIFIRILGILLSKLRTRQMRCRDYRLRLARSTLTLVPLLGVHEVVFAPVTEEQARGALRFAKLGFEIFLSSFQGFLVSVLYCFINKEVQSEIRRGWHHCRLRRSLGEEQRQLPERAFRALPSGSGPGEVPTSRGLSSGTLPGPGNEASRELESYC
Summary of the method: (§1)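 Cells were stimulated with peptide for 30 min at 37° C, then lysed in buffer carrying cAMP-d2 and anti-cAMP Eu3+-cryptate for a competitive HTRF read after at least 60 min at room temperature. The 665/620 nm ratio was converted to nM cAMP against a standard curve.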

hGLP-1R = hGLP-1R (Homo sapiens, UniProt P43220); assay: Functional cAMP formation (HTRF) in HEK-293 clonal cells expressing hGLP-1R, 0.1% bovine casein, without or with 1.0% human serum albumin; set-up: expressed in transfected cells; conditions: for Emax: percent of maximal response to GLP-1(7-36)NH2; for EC50: cAMP, 0.1% bovine casein (no human serum albumin), geometric mean
Chain of hGLP-1R (P43220 24-463): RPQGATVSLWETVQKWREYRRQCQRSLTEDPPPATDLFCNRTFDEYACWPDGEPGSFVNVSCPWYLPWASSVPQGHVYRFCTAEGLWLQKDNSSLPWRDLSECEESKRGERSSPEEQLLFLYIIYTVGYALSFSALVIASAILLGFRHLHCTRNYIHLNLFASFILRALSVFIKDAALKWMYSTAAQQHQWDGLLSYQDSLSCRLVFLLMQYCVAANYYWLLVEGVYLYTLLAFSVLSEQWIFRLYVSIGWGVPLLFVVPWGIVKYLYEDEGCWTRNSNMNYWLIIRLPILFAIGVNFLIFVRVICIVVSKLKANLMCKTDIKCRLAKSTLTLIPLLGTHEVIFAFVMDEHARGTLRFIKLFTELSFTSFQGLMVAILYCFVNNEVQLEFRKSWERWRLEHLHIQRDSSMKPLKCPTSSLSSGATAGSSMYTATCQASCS
Summary of the method: as §1

hGCGR = molecular target: T2, hGCGR (Homo sapiens, UniProt P47871); assay: Functional cAMP formation (HTRF) in HEK-293 clonal cells expressing hGCGR, 0.1% bovine casein, without or with 1.0% human serum albumin; conditions: 37° C.
T2 construct: expressed in transfected cells
T2 sequence (P47871 26-477): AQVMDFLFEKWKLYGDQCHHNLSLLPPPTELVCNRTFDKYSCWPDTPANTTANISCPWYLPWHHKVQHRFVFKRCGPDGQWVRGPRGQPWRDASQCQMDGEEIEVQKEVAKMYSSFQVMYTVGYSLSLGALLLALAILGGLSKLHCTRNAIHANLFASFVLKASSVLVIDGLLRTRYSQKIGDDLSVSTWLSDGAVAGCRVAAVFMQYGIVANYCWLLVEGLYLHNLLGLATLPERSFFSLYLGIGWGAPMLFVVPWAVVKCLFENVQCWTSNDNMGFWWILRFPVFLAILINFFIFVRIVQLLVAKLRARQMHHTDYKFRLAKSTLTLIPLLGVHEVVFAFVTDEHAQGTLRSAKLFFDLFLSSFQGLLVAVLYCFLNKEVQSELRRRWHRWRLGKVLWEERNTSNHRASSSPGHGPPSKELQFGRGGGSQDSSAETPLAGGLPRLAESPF
Summary of the method: as §1

[1] = HEK293, cAMP, 37° C., 0.1% bovine casein and 1.0% human serum albumin, read-out: hGIPR Emax, % ± SEM
[2] = 37° C., 0.1% bovine casein (no human serum albumin), geometric mean, read-out: hGIPR EC50, nM (SEM, n)
[3] = HEK293, cAMP, 37° C., 0.1% bovine casein and 1.0% human serum albumin, read-out: hGLP-1R Emax, % ± SEM
[4] = HEK293, cAMP, 37° C., 0.1% bovine casein, arithmetic mean, read-out: hGLP-1R Emax, % ± SEM
[5] = 37° C., read-out: hGLP-1R EC50, nM (SEM, n)
[6] = cAMP, 0.1% bovine casein (no human serum albumin), geometric mean, read-out: hGCGR EC50, nM (SEM, n)
[7] = cAMP, 0.1% bovine casein and 1.0% human serum albumin, geometric mean (SEM, n), read-out: hGCGR EC50, nM (SEM, n)
[8] = hGIPR EC50, nM (SEM, n), 37° C., 0.1% bovine casein (no human serum albumin), geometric mean
[9] = HEK293, read-out: hGLP-1R Emax, % ± SEM, cAMP, 37° C., 0.1% bovine casein, arithmetic mean
[10] = hGLP-1R EC50, nM (SEM, n), 37° C.
[11] = hGCGR EC50, nM (SEM, n), cAMP, 0.1% bovine casein (no human serum albumin), geometric mean

Row | Structure (SMILES) | Emax (hGIPR; [1]) [%] | Emax (hGIPR; HEK293, cAMP, 37° C., 0.1% bovine casein, arithmetic mean, read-out: hGIPR Emax, % ± SEM) [%] | EC50 (hGIPR; [2]) [nM] | Emax (hGLP-1R; [3]) [%] | Emax (hGLP-1R; [4]) [%] | EC50 (hGLP-1R; [5]) [nM] | EC50 (hGCGR; [6]) [nM] | EC50 (hGCGR; [7]) [nM] | Emax (hGIPR; HEK293, read-out: hGIPR Emax, % ± SEM, 0.1% bovine casein and 1.0% human serum albumin, 37° C.) [%] | EC50 (hGIPR; [8]) [nM] | Emax (hGLP-1R; HEK293, read-out: hGLP-1R Emax, % ± SEM, 0.1% bovine casein and 1.0% human serum albumin, 37° C.) [%] | Emax (hGLP-1R; [9]) [%] | EC50 (hGLP-1R; [10]) [nM] | EC50 (hGCGR; hGCGR EC50, nM (SEM, n), 0.1% bovine casein and 1.0% human serum albumin, geometric mean) [nM] | EC50 (hGCGR; [11]) [nM] | EC50 (hGIPR; 37° C., 0.1% bovine casein and 1.0% human serum albumin, geometric mean (SEM, n), read-out: hGIPR EC50, nM (SEM, n)) [nM] | Emax (hGIPR; HEK293, read-out: hGIPR Emax, % ± SEM, cAMP, 37° C., 0.1% bovine casein and 1.0% human serum albumin) [%] | EC50 (hGCGR; hGCGR EC50, nM (SEM, n), cAMP, 0.1% bovine casein and 1.0% human serum albumin, geometric mean (SEM, n)) [nM]
1 | CC[C@H](C)[C@H](NC(=O)[C@H](CCCN)NC(=O)[C@H](CC(=O)O)NC(=O)[C@H](CC(C)C)NC(=O)[C@](C)(CC(C)C)NC(=O)[C@@H](NC(=O)C(C)(C)NC(=O)[C@H](Cc1ccncc1)NC(=O)[C@H](CC(=O)O)NC(=O)[C@H](CO)NC(=O)[C@@H](NC(=O)[C@](C)(Cc1ccccc1F)NC(=O)[C@@H](NC(=O)CNC(=O)[C@H](CCC(=O)O)NC(=O)C(C)(C)NC(=O)[C@@H](N)Cc1ccc(O)cc1)[C@@H](C)O)[C@@H](C)O)[C@@H](C)CC)C(=O)N[C@@H](C)C(=O)N[C@@H](CCC(N)=O)C(=O)NC(C)(C)C(=O)N[C@@H](CCCCNC(=O)COCCOCCNC(=O)CC[C@H](NC(=O)CCCCCCCCCCCCC(=O)O)C(=O)O)C(=O)N[C@@H](Cc1ccccc1)C(=O)N[C@H](C(=O)N[C@H](CCC(=O)O)C(=O)N[C@@](C)(Cc1ccc(O)cc1)C(=O)N[C@@H](CC(C)C)C(=O)N[C@H](C(=O)N[C@@H](CCCCNC(=O)COCCOCCNC(=O)CC[C@H](NC(=O)CCCCCCCCCCCCC(=O)O)C(=O)O)C(=O)NCC(=O)NCC(=O)N1CCC[C@H]1C(=O)N[C@@H](CO)C(=O)N[C@@H](CO)C(=O)NCC(=O)N[C@@H](C)C(=O)N1CCC[C@H]1C(=O)N1CCC[C@H]1C(=O)N1CCC[C@H]1C(=O)N[C@@H](CO)C(N)=O)[C@@H](C)CC)[C@@H](C)CC [Example 340] | 87.9 | 95.2 | 0.0206 | 112 | 105 | 0.409 | > 9950 | > 9950 |  |  |  |  |  |  |  |  |  | 
2 | CC[C@H](C)[C@H](NC(=O)[C@H](CCCN)NC(=O)[C@H](CC(=O)O)NC(=O)[C@H](CC(C)C)NC(=O)[C@](C)(CC(C)C)NC(=O)[C@@H](NC(=O)[C@H](CO)NC(=O)[C@H](Cc1ccncc1)NC(=O)[C@H](CC(=O)O)NC(=O)[C@H](CO)NC(=O)[C@@H](NC(=O)[C@](C)(Cc1ccccc1F)NC(=O)[C@@H](NC(=O)CNC(=O)[C@H](CCC(=O)O)NC(=O)C(C)(C)NC(=O)[C@@H](N)Cc1ccc(O)cc1)[C@@H](C)O)[C@@H](C)O)[C@@H](C)CC)C(=O)N[C@@H](C)C(=O)N[C@@H](CCC(N)=O)C(=O)NC(C)(C)C(=O)N[C@@H](CCC(=O)O)C(=O)N[C@@H](Cc1ccccc1)C(=O)N[C@H](C(=O)N[C@@H](CCCCNC(=O)COCCOCCNC(=O)COCCOCCNC(=O)CC[C@H](NC(=O)CCCCCCCCCOc1ccc(C(=O)O)cc1)C(=O)O)C(=O)N[C@@](C)(Cc1ccc(O)cc1)C(=O)N[C@@H](CC(C)C)C(=O)N[C@H](C(=O)N[C@@H](CCCCNC(=O)COCCOCCNC(=O)COCCOCCNC(=O)CC[C@H](NC(=O)CCCCCCCCCOc1ccc(C(=O)O)cc1)C(=O)O)C(=O)NCC(=O)NCC(=O)N1CCC[C@H]1C(=O)N[C@@H](CO)C(=O)N[C@@H](CO)C(=O)NCC(=O)N[C@@H](C)C(=O)N1CCC[C@H]1C(=O)N1CCC[C@H]1C(=O)N1CCC[C@H]1C(=O)N[C@@H](CO)C(N)=O)[C@@H](C)CC)[C@@H](C)CC [Example 274] |  |  |  |  |  |  |  |  | 93.5 | 0.0226 | 121 | 114 | 0.406 | > 9950 | > 9950 |  |  | 
3 | CC[C@H](C)[C@H](NC(=O)[C@H](CC(C)C)NC(=O)[C@](C)(Cc1ccc(O)cc1)NC(=O)[C@@H](CCC(=O)O)NC(=O)[C@@H](NC(=O)[C@H](Cc1ccccc1)NC(=O)[C@H](CCCCNC(=O)COCCOCCNC(=O)COCCOCCNC(=O)CC[C@H](NC(=O)CCCCCCCCCCCCC(=O)O)C(=O)O)NC(=O)C(C)(C)NC(=O)[C@H](CCC(N)=O)NC(=O)[C@H](C)NC(=O)[C@H](CCCCNC(=O)COCCOCCNC(=O)COCCOCCNC(=O)CC[C@H](NC(=O)CCCCCCCCCCCCC(=O)O)C(=O)O)NC(=O)[C@H](CCCN)NC(=O)[C@H](CC(=O)O)NC(=O)[C@H](CC(C)C)NC(=O)[C@](C)(CC(C)C)NC(=O)[C@@H](NC(=O)C(C)(C)NC(=O)[C@@H](NC(=O)[C@H](CC(=O)O)NC(=O)[C@H](CO)NC(=O)[C@@H](NC(=O)[C@](C)(Cc1ccccc1F)NC(=O)[C@@H](NC(=O)CNC(=O)[C@H](CCC(=O)O)NC(=O)C(C)(C)NC(=O)[C@@H](N)Cc1ccc(O)cc1)[C@@H](C)O)[C@@H](C)O)C(C)C)[C@@H](C)CC)[C@@H](C)CC)C(=O)N[C@@H](CCCN)C(=O)NCC(=O)NCC(=O)N1CCC[C@H]1C(=O)N[C@@H](CO)C(=O)N[C@@H](CO)C(=O)NCC(=O)N[C@@H](C)C(=O)N1CCC[C@H]1C(=O)N1CCC[C@H]1C(=O)N1CCC[C@H]1C(=O)N[C@@H](CO)C(N)=O [Example 407] (H-Y[Aib]EGT[αMePhe(2-F)]TSDV[Aib]I[αMeL]LD[Orn]K([AEEA-AEEA-γGlu-C14 diacid])AQ[Aib]K([AEEA-AEEA-γGlu-C14 diacid])FI[dE][αMeY]LI[Orn]GGPSSGAPPPS-NH2) | 95.4 |  | 0.0114 | 97.2 | 100 | 0.156 | > 9950 | > 9950 |  |  |  |  |  |  |  | 1.87 |  | 
4 | CC[C@H](C)[C@H](NC(=O)[C@H](CCCN)NC(=O)[C@H](CC(=O)O)NC(=O)[C@H](CC(C)C)NC(=O)[C@](C)(CC(C)C)NC(=O)[C@@H](NC(=O)C(C)(C)NC(=O)[C@@H](NC(=O)[C@H](CC(=O)O)NC(=O)[C@H](CO)NC(=O)[C@@H](NC(=O)[C@](C)(Cc1ccccc1F)NC(=O)[C@@H](NC(=O)CNC(=O)[C@H](CCC(=O)O)NC(=O)C(C)(C)NC(=O)[C@@H](N)Cc1ccc(O)cc1)[C@@H](C)O)[C@@H](C)O)C(C)C)[C@@H](C)CC)C(=O)N[C@@H](C)C(=O)N[C@@H](CCC(N)=O)C(=O)NC(C)(C)C(=O)N[C@@H](CCC(=O)O)C(=O)N[C@@H](Cc1ccccc1)C(=O)N[C@H](C(=O)N[C@@H](CCCCNC(=O)COCCOCCNC(=O)CC[C@H](NC(=O)CCCCCCCCCOc1ccc(C(=O)O)cc1)C(=O)O)C(=O)N[C@@](C)(Cc1ccc(O)cc1)C(=O)N[C@@H](CC(C)C)C(=O)N[C@H](C(=O)N[C@@H](CCCCNC(=O)COCCOCCNC(=O)CC[C@H](NC(=O)CCCCCCCCCOc1ccc(C(=O)O)cc1)C(=O)O)C(=O)NCC(=O)NCC(=O)N1CCC[C@H]1C(=O)N[C@@H](CO)C(=O)N[C@@H](CO)C(=O)NCC(=O)N[C@@H](C)C(=O)N1CCC[C@H]1C(=O)N1CCC[C@H]1C(=O)N1CCC[C@H]1C(=O)N[C@@H](CO)C(N)=O)[C@@H](C)CC)[C@@H](C)CC [Example 381] |  |  |  |  |  |  |  |  |  | 0.0784 |  | 105 | 1.1 |  | > 9950 |  | 90.3 | > 9950
